In US20020128231A1 (priority 2000, published 2002):

Assays:
[1] = molecular target: P-glycoprotein (Homo sapiens, UniProt P08183); assay: Rhodamine 123 transport assay across HCT-8 cell monolayers; details: compound 10 μM, Rh123 15 μM, HCT-8 cells; for inhibition at 10 μM: human, HCT-8 cell monolayers in Transwell dishes, probe Rhodamine 123 (15 μM), % Inhibition of R123 Transport
Protocol: The human ileocecal adenocarcinoma cell line HCT-8 was grown in RPMI-1640 medium supplemented with 10% horse serum, 1 mM sodium pyruvate and 0.01 mg/ml gentamicin. All cells were maintained in a humidified atmosphere with 5% CO2 at 37° C.
Rhodamine 123 transport was examined as previously described (Hunter J. et al., Simmons, Br. J. Cancer, 64: 437444 (1991); Kim A. E. et al., J. Pharm. Exp. Ther., 286: 1439-1445 (1998)) using HCT-8 cells. Particularly, cells were grown in 6 well Corning Transwell dishes until a tight monolayer was formed. Rh123 was added at a final concentration of 15 μM to the basal or apical compartments and 200 μl samples were taken at the indicated times from the opposite chamber. Fluorescence of Rh123 in the media samples was measured using a fluorescence plate reader with an excitation wavelength of 485 nm and an emission wavelength of 530 nm.

[2] = tested on: MDR1-expressing NIH 3T3 cells; assay: Cytotoxicity (MTT) assay: modulation of drug cytotoxicity in multidrug resistant cells; details: compound 5 μM; 50 nM doxorubicin; 72 hours; MTT
Protocol: Cytotoxicity assays were performed with many of the compounds of Formula I to verify their usefulness as inhibitors of P-gp.
Parental NIH3T3 Swiss mouse embryo cell line was obtained from American Type Culture Collection and was grown in Dulbecco's Modified Eagles Medium supplemented with 4.5 g/L glucose, 10% fetal bovine serum, 2 mM L-glutamine, and 0.01 mg/ml gentamicin. […] All cells were maintained in a humidified atmosphere with 5% CO2 at 37° C.
Parental and MDR1-expressing NIH 3T3 cells were plated at a density of 2.5-3.0×10^3 cells/well in 96-well microtiter plates and were exposed to 50 nM of doxoriubicin, 7.5 nM vinblastine, 75 nM colchicine or 300 nM paclitaxel for 72 hours. Cell viability was determined with the colorimetric MTT (3-(4,5-dimethylthiazol-2-yl)-2,5-diphenyl tetrazolium) assay as previously described (Mosmann T., J. Immunol. Methods, 65: 55-63 (1983); Hansen M. B. et al., J. Immunol. Methods, 119: 203-210 (1989)) and the absorbance was measured at 570 nm.

Chain of P-glycoprotein (P08183 whole entry): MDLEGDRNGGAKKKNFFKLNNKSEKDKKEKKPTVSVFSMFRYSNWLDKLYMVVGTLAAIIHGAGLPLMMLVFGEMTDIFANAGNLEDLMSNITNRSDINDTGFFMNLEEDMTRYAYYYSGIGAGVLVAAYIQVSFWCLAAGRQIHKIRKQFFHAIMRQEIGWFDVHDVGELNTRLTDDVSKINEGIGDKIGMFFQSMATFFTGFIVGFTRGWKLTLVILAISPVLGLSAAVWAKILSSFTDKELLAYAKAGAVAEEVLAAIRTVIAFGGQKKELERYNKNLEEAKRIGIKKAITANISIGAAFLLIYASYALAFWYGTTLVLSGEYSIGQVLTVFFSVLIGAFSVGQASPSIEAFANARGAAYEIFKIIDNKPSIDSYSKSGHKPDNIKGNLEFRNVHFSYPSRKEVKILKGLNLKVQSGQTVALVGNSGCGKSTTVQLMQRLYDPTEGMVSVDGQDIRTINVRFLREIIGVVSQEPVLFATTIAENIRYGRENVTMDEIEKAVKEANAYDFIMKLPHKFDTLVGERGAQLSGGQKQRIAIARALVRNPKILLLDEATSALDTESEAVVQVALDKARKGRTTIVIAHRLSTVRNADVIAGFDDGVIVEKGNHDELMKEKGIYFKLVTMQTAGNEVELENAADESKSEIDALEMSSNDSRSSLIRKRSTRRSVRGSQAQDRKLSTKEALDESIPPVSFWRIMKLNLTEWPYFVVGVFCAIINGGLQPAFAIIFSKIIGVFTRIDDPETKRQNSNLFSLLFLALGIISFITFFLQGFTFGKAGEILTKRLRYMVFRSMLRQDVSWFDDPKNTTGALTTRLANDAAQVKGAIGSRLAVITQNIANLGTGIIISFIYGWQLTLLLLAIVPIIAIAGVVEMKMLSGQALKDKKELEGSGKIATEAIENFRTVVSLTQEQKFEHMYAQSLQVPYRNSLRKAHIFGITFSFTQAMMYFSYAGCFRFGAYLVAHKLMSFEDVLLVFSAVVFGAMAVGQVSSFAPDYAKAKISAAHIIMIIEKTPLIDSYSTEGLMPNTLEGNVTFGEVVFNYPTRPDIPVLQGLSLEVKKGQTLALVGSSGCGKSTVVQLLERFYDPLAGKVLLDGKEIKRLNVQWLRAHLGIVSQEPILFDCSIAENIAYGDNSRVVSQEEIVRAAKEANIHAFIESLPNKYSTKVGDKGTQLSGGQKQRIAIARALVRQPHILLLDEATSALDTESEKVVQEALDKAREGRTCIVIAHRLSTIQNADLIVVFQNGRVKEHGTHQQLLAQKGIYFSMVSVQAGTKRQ

In the case of `CCOc1ccccc1N1CCN(C(=O)CC2c3cc(OC)c(O)cc3C(c3ccc(O)c(OC)c3)C2C(=O)N2CCN(c3ccccc3OCC)CC2)CC1` (centres unmarked) [AV-206, 2-[2-[4-(2-ethoxyphenyl)-piperazine-1-carbonyl]-5-hydroxy-3-(4-hydroxy-3-methoxyphenyl)-6-methoxy-indan-1-yl]-1-[4(2-ethoxyphenyl)-piperazin-1-yl]-ethanone], the inhibition at 10 μM [1] is reported as 88.2% and the “Modulation of Drug Resistance (percentage increase in doxorubicin cytotoxicity in the presence of the compounds versus in their absence)” value [2] is reported as 54.78%.

For `CCOc1ccc(C2c3cc(OCC)c(OC)cc3C(CC(=O)N3CCN(c4ccccc4OCC)CC3)C2C(=O)N2CCN(c3ccccc3OCC)CC2)cc1OC` (centres unmarked) [AV-207, 2-{5-ethoxy-3-(4-ethoxy-3-methoxyphenyl)-2-[4-(2-ethoxyphenyl)-piperazine-1-carbonyl]-6-methoxy-indan-1-yl}-1-[4-(2-ethoxyphenyl)-piperazin-1-yl]-ethanone], the inhibition at 10 μM [1] was 89.7% and the “Modulation of Drug Resistance (percentage increase in doxorubicin cytotoxicity in the presence of the compounds versus in their absence)” value [2] was 55.08%.

In the case of `CCCCOc1ccc(C2c3cc(OCCCC)c(OC)cc3C(CC(=O)N3CCN(c4ccccc4OCC)CC3)C2C(=O)N2CCN(c3ccccc3OCC)CC2)cc1OC` (centres unmarked) [AV-208, 2-{5-butoxy-3-(4-butoxy-3-methoxyphenyl)-2-[4-(2-ethoxyphenyl)-piperazine-1-carbonyl]-6-methoxy-indan-1-yl}-1-[4-(2-ethoxyphenyl)-piperazin-1-yl]-ethanone], the inhibition at 10 μM [1] is reported as 86.1% and the “Modulation of Drug Resistance (percentage increase in doxorubicin cytotoxicity in the presence of the compounds versus in their absence)” value [2] is reported as 51.78%.

In the case of `CCCCCCCCCCOc1ccc(C2c3cc(OCCCCCCCCCC)c(OC)cc3C(CC(=O)N3CCN(c4ccccc4OCC)CC3)C2C(=O)N2CCN(c3ccccc3OCC)CC2)cc1OC` (centres unmarked) [AV-209, 2-{5-decyloxy-3-(4-decyloxy-3-methoxyphenyl)-2-[4-(2-ethoxyphenyl)-piperazine-1-carbonyl]-6-methoxy-indan-1-yl}-1-[4-(2-ethoxyphenyl)-piperazin-1-yl]-ethanone], the inhibition at 10 μM [1] is reported as 47.3% and the “Modulation of Drug Resistance (percentage increase in doxorubicin cytotoxicity in the presence of the compounds versus in their absence)” value [2] is reported as 1.16%.

With `COc1ccc(C2c3cc(OC)c(OC)cc3C(CCNS(=O)(=O)c3ccccc3)C2CNS(=O)(=O)c2ccccc2)cc1OC` (centres unmarked) [AV-223, N-{2-[(2-N-methyl)-benzenesulfonamide-3-(3,4-dimethoxyphenyl)-5,6-dimethoxy-indan-1-yl}-ethyl}-benzensulfonamide] the “% Inhibition of R123 Transport” value [1] was 74.50% and the “Modulation of Drug Resistance (percentage increase in doxorubicin cytotoxicity in the presence of the compounds versus in their absence)” value [2] was 36.55%.

With `COc1ccc(C2c3cc(OC)c(OC)cc3C(CCNC(=O)NCc3ccccc3)C2CNC(=O)NCc2ccccc2)cc1OC` (centres unmarked) [AV-234, 10-benzyl-3-{2-[2-(3-benzyl-ureidomethyl)-3-(3,4-dimethoxyphenyl)-5,6-dimethoxy-indan-1-yl]-ethyl}-urea] the “% Inhibition of R123 Transport” value [1] was 37.58% and the “Modulation of Drug Resistance (percentage increase in doxorubicin cytotoxicity in the presence of the compounds versus in their absence)” value [2] was 12.50%.

For `CCOc1ccccc1N1CCN(C(=O)CC2c3cc(OC)c(OC)cc3C(c3ccc(OC)c(OC)c3)C2C(=O)O)CC1` (centres unmarked) [AV-250, 1-(3,4-Dimethoxy-phenyl)-3-{2-[4-(2-ethoxy-phenyl)-piperazin-1-yl]-2-oxo-ethyl}-5,6-dimethoxy-indan-2-carboxylic acid], the inhibition at 10 μM [1] was 55.9% and the “Modulation of Drug Resistance (percentage increase in doxorubicin cytotoxicity in the presence of the compounds versus in their absence)” value [2] was −7.1%.

With `CCCCCOc1ccc(C2c3cc(OCCCCC)c(OC)cc3C(CC(=O)N3CCN(c4ccccc4OCC)CC3)C2C(=O)N2CCN(c3ccccc3OCC)CC2)cc1OC` (centres unmarked) [AV-252, 2-[2-[4-(2-Ethoxy-phenyl)-piperazine-1-carbonyl]-6-methoxy-3-(3-methoxy-4-pentyloxy-phenyl)-5-pentyloxy-indan-1-yl]-1-[4-(2-ethoxy-phenyl)-piperazin-1-yl]ethanone] the inhibition at 10 μM [1] was 64.2% and the “Modulation of Drug Resistance (percentage increase in doxorubicin cytotoxicity in the presence of the compounds versus in their absence)” value [2] was −0.5%.

In the case of `CCOc1ccc(C2c3cc(OCC)c(OCC)cc3C(CC(=O)N3CCN(c4ccccc4OCC)CC3)C2C(=O)N2CCN(c3ccccc3OCC)CC2)cc1OCC` (centres unmarked) [AV-253], the “% Inhibition of R123 Transport” value [1] is reported as 92.03% and the “Modulation of Drug Resistance (percentage increase in doxorubicin cytotoxicity in the presence of the compounds versus in their absence)” value [2] is reported as 19.8%.

For `CCCOc1ccc(C2c3cc(OCCC)c(OCCC)cc3C(CC(=O)N3CCN(c4ccccc4OCC)CC3)C2C(=O)N2CCN(c3ccccc3OCC)CC2)cc1OCCC` (centres unmarked) [AV-254, 2-{3-(3,4-Dipopoxy-phenyl)-2-[4-(2-ethoxy-phenyl)-piperazine-1-carbonyl]-5,6-dipropoxy-indan-1-yl}-1-[4-(2-ethoxy-phenyl)-piperazin-1-yl]-ethanone], the “% Inhibition of R123 Transport” value [1] was 18.70% and the “Modulation of Drug Resistance (percentage increase in doxorubicin cytotoxicity in the presence of the compounds versus in their absence)” value [2] was 4.1%.

In the case of `CCCCOc1ccc(C2c3cc(OCCCC)c(OCCCC)cc3C(CC(=O)N3CCN(c4ccccc4OCC)CC3)C2C(=O)N2CCN(c3ccccc3OCC)CC2)cc1OCCCC` (centres unmarked) [AV-255, 2-{3-(3,4-Dibutoxy-phenyl)-2-[4-(2-ethoxy-phenyl)-piperazine-1-carbonyl]-5,6-dibutoxy-indan-1-yl}-1-[4-(2-ethoxy-phenyl)-piperazin-1-yl]-ethanone], the inhibition at 10 μM [1] is reported as 96% and the “Modulation of Drug Resistance (percentage increase in doxorubicin cytotoxicity in the presence of the compounds versus in their absence)” value [2] is reported as 6.7%.

For `CCOc1ccccc1N1CCN(C(=O)CC2c3cc(OC)c(OC)cc3C(c3ccc(OC)c(OC)c3)C2C(=O)N2CCN(C)CC2)CC1` (centres unmarked) [AV-256], the “% Inhibition of R123 Transport” value [1] was 75.61% and the “Modulation of Drug Resistance (percentage increase in doxorubicin cytotoxicity in the presence of the compounds versus in their absence)” value [2] was 8.7%.

`CCOc1ccccc1N1CCN(C(=O)CC2c3cc(OC)c(OC)cc3C(c3ccc(OC)c(OC)c3)C2C(=O)N(C)C)CC1` (centres unmarked) [AV-257, 1-(3,4-Dimethoxy-phenyl)-3-{2-[4-(2-ethoxy-phenyl)-piperazin-1-yl]-2-oxo-ethyl}-5,6-dimethoxy-indan-2-carboxylic acid dimethylamide] was tested, and the inhibition at 10 μM [1] was 80.4% and the “Modulation of Drug Resistance (percentage increase in doxorubicin cytotoxicity in the presence of the compounds versus in their absence)” value [2] was 8.7%.

For `COc1ccc(C2c3cc(OC)c(OC)cc3C(CCNC(=O)c3ccc(C(C)(C)C)cc3)C2CNC(=O)c2ccc(C(C)(C)C)cc2)cc1OC` (centres unmarked) [AV-259], the “% Inhibition of R123 Transport” value [1] was 84.87% and the “Modulation of Drug Resistance (percentage increase in doxorubicin cytotoxicity in the presence of the compounds versus in their absence)” value [2] was 3.9%.

`COc1ccc(C2c3cc(OC)c(OC)cc3C(CCNC(=O)c3ccc(OC(F)(F)F)cc3)C2CNC(=O)c2ccc(OC(F)(F)F)cc2)cc1OC` (centres unmarked) [AV-260] was tested, and the “% Inhibition of R123 Transport” value [1] was 73.84% and the “Modulation of Drug Resistance (percentage increase in doxorubicin cytotoxicity in the presence of the compounds versus in their absence)” value [2] was 2.1%.

For `CCCc1ccc(C(=O)NCCC2c3cc(OC)c(OC)cc3C(c3ccc(OC)c(OC)c3)C2CNC(=O)c2ccc(CCC)cc2)cc1` (centres unmarked) [AV-262], the “% Inhibition of R123 Transport” value [1] was 83.47% and the “Modulation of Drug Resistance (percentage increase in doxorubicin cytotoxicity in the presence of the compounds versus in their absence)” value [2] was 18.0%.

For `COc1ccc(C2c3cc(OC)c(OC)cc3C(CCNC(=O)c3ccc(Br)cc3)C2CNC(=O)c2ccc(Br)cc2)cc1OC` (centres unmarked) [AV-263], the “% Inhibition of R123 Transport” value [1] was 80.78% and the “Modulation of Drug Resistance (percentage increase in doxorubicin cytotoxicity in the presence of the compounds versus in their absence)” value [2] was 12.2%.

For `COc1ccc(C2c3cc(OC)c(OC)cc3C(CCNC(=O)c3ccccc3)C2CNC(=O)c2ccccc2)cc1OC` (centres unmarked) [AV-264], the “% Inhibition of R123 Transport” value [1] was 83.51% and the “Modulation of Drug Resistance (percentage increase in doxorubicin cytotoxicity in the presence of the compounds versus in their absence)” value [2] was 6.3%.

In the case of `COc1ccc(C2c3cc(OC)c(OC)cc3C(CCNC(=O)c3ccccc3OC)C2CNC(=O)c2ccccc2OC)cc1OC` (centres unmarked) [AV-265], the “% Inhibition of R123 Transport” value [1] is reported as 93.0% and the “Modulation of Drug Resistance (percentage increase in doxorubicin cytotoxicity in the presence of the compounds versus in their absence)” value [2] is reported as −0.2%.
